From patent US5908868A, “Retinol derivatives useful for enhancing immune response” (priority 1995, dated 1999)
Read-outs that look alike come from different tables or passages of the source. Each block holds one molecule with its values, some of them ahead of it.

Columns and labels:
CD4+ T lymphocytes = assay: Proliferation of anti-CD3 activated CD4+ T lymphocytes; type: cell-based, BALB/c mouse
Excerpt: (§1) Growth curves of lymph node T cells depleted of antigen-presenting cells (FIG. 17A) with and without 10^-6 M retinol at 2×10^5 and 5×10^4 cells/well. (FIG. 17B) Dose-responses elicited by different retinoids in cultures of lymph node T cells depleted of antigen-presenting cells. Also shown are the growth curves of CD4^+ (FIG. 17C) and CD8^+ T lymphocytes (FIG. 17D) in the presence of either retinol, 14HRR, human serum or in their absence.
(§2) T lymphocytes, purified as described, 5×10^4 well, were activated with immobilized anti-CD3 antibody in ITLB medium. The indicated amounts of retinoids or human serum were added at initiation of cultures. […] 14HRR was added every 12 hours. DNA synthesis was measured by a 4 hour pulse with tritiated thymidine. SDs were ≤17%.
(§3) The cell suspension in a volume of 2 ml was applied to a nylon wool column (40) (0.6 g of washed nylon fibers in the barrel of a 10 ml syringe) and incubated at 37° C. for 40 min. The non-adherent cells were recovered by washing with warm serum-free medium at a flow rate of 1 ml/min. […] The success of the enrichment procedures was monitored cytofluorimetrically using FITC-conjugated anti-CD8 and PE-conjugated anti-CD4. […]

CD8+ T lymphocytes = assay: Proliferation of anti-CD3 plus IL-2 activated CD8+ T lymphocytes; type: cell-based, BALB/c mouse
Excerpt: as §1, §2, §3

5/2 lymphoblastoid cells = type: in vitro ADME, human
Method: FIG. 24. Kinetics of biosynthesis of 14HRR in lymphoblastoid cells. 50 ml ITLB 600,000 5/2 cells/ml were incubated with 20 μCi of ^3 H retinol in serum-free ITLB medium. Cell pellets corresponding to 10 ml of culture were delipidated at 20 minute intervals and the corresponding lipid fraction separated on an analytical C18 reversed-phase column (see FIG. 20). Radioactive peaks were identified by coelution with cold reference retinoids.
The kinetics of biosynthesis of 13,14DHR and 14HRR were determined in 5/2 lymphoblastoid cells. These cells were cultured in the presence of ^3 H retinol for different time periods, and the cell-associated retinoids extracted as referenced above. They were then chromatographed on an analytical C18 column as described in FIG. 20. The sizes of peaks emerging at 16.8 minutes, representing 13,14DHR, and 18.5 minutes, representing 14HRR, were measured and plotted in the bar diagram of FIG. 24.

5/2 = assay: Retinol metabolism; type: in vitro ADME, human
Method: (§4) FBS. The FBS was preincubated at room temperature with 14.4 uCi [^3 H
(§5) retinol (NEN) for 4 h. The cell pellet was washed twice with PBS. The
(§6) retinoid were extracted according to MClean et al. 90 and separated on an
(§7) analytical c18 reverse phase column according to FIG. 7. The DPM wer
(§8) determined using an online scintillation counter.

Hela = assay: Retinol metabolism; type: in vitro ADME, human
Method: as §4, §5, §6, §7, §8

Ket = assay: Retinol metabolism; type: in vitro ADME, human
Method: as §4, §5, §6, §7, §8

N-tera2 = assay: Retinol metabolism; type: in vitro ADME, human
Method: as §4, §5, §6, §7, §8

Raji (37°) = assay: Retinol metabolism; type: in vitro ADME, human
Method: as §4, §5, §6, §7, §8

Raji (4°) = assay: Retinol metabolism; type: in vitro ADME, human
Method: as §4, §5, §6, §7, §8

SK-N-SH = assay: Retinol metabolism; type: in vitro ADME, human
Method: as §4, §5, §6, §7, §8

SKL3 = assay: Retinol metabolism; type: in vitro ADME, human
Method: as §4, §5, §6, §7, §8

[1] = cited from earlier work
fibroblasts = assay: Expression of immediate early genes; type: cell-based; conditions: unpublished work

Total cts. (5/2; 5/2): 5.7 × 10^5 cts. | Ester (% of taken up retinol) (5/2; 5/2, overnight): 24% | P3 (% of taken up retinol) (5/2; 5/2, overnight): 4% | Retinol (% of taken up retinol) (5/2; 5/2, overnight): 67% | Total cts. (Hela): 1.0 × 10^5 cts. | Ester (% of taken up retinol) (Hela; overnight): 20% | P3 (% of taken up retinol) (Hela; overnight): 3% | Retinol (% of taken up retinol) (Hela; overnight): 71% | Total cts. (Ket): 4.6 × 10^5 cts. | Ester (% of taken up retinol) (Ket; overnight): 41% | P3 (% of taken up retinol) (Ket; overnight): 3% | Retinol (% of taken up retinol) (Ket; overnight): 52% | Total cts. (N-tera2; N-tera2): 13.5 × 10^5 cts. | Ester (% of taken up retinol) (N-tera2; N-tera2, overnight): 97% | P3 (% of taken up retinol) (N-tera2; N-tera2, overnight): 0.4% | Retinol (% of taken up retinol) (N-tera2; N-tera2, overnight): 0.7% | Total cts. (Raji (37°); 2.5 × 10^6 cells): 4.0 × 10^5 cts. | Ester (% of taken up retinol) (Raji (37°); overnight): 14% | P3 (% of taken up retinol) (Raji (37°); overnight): 3% | Retinol (% of taken up retinol) (Raji (37°); overnight): 79% | Total cts. (Raji (4°); 2.5 × 10^6 cells): 2.5 × 10^5 cts. | Ester (% of taken up retinol) (Raji (4°); overnight): 0% | P3 (% of taken up retinol) (Raji (4°); overnight): 0% | Retinol (% of taken up retinol) (Raji (4°); overnight): 99% | Total cts. (SK-N-SH): 2.0 × 10^5 cts. | Ester (% of taken up retinol) (SK-N-SH; overnight): 25% | P3 (% of taken up retinol) (SK-N-SH; overnight): 0.9% | Total cts. (SKL3; SKL3): 1.6 × 10^5 cts. | Ester (% of taken up retinol) (SKL3; SKL3, overnight): 24% | P3 (% of taken up retinol) (SKL3; SKL3, overnight): 2% | Retinol (% of taken up retinol) (SKL3; SKL3, overnight): 71%
SMILES: CC1=C(/C=C/C(C)=C/C=C/C(C)=C/CO)C(C)(C)CCC1 [retinol, all-trans retinol]
response to activating signal (CD4+ T lymphocytes): responded to the activating signal | response to activating signal (CD8+ T lymphocytes): responded to the activating signal | order of metabolite production (5/2 lymphoblastoid cells): production of 13,14DHR precedes that of 14HRR | half-life ([1]; cell culture, serum-free medium (32)): < 24 h | half-life ([1]; serum-free tissue culture medium (32)): ~24 h

SMILES: CC(C=CC=C(C)C(O)CO)=CC=C1C(C)=CCCC1(C)C (stereo not drawn) [14HRR, 14-hydroxy-4,14-retro-retinol]
response to activating signal (CD4+ T lymphocytes): responded to the activating signal | response to activating signal (CD8+ T lymphocytes): responded to the activating signal | expression of immediate early genes (fibroblasts): facilitates the expression of immediate early genes in fibroblasts
